Target: HIV-1 RT (Human immunodeficiency virus type 1 group M subtype B, UniProt P03366)
Test: Steady-state competition assay, IC50 determination
Assay type: biochemical
Conditions: dTTP incorporation, ratio of IC50 values

SMILES | fold improvement of polymerization inhibition over propargyl-4PEG-TMC [fold] | fold improvement of polymerization inhibition relative to the TMC-derivative | fold improvement of polymerization inhibition relative to the TMC-derivative (listed as triphosphate of d4T-4PEG-TMC) [fold] | fold decrease in potency relative to the TMC-derivative [fold]
Cc1cc(C#CCOCCOCCOCCOCCOCC#Cc2cn([C@H]3C=C[C@@H](COP(=O)(O)OP(=O)(O)OP(=O)(O)O)O3)c(=O)[nH]c2=O)cc(C)c1Oc1ccnc(Nc2ccc(C#N)cc2)n1 [d4TTP-4PEG-TMC, d4U-Propynyl-4-PEG-propynyl-TMC-triphosphate] | 40 | approximately 4.3 fold | 4.3 | 
C#CCOCCOCCOCCOCCOCC#Cc1cc(C)c(Oc2ccnc(Nc3ccc(C#N)cc3)n2)c(C)c1 [propargyl-4PEG-TMC, 4-[4-(4-{3-[2-(2-{2-[2-(Prop-2-ynyloxy)ethoxy]ethoxy}ethoxy)-ethoxy]prop-1-ynyl}-2,6-dimethylphenoxy)pyrimidin-2-ylamino]-benzonitrile] |  |  |  | 10
